From patent US10233173B2, “Substituted 1,2,3-triazoles as NR2B-selective NMDA modulators” (JANSSEN PHARMACEUTICA NV, priority 2016, dated 2019)

What follows are compounds tested against human GluN1/GluN2B NMDA receptors (Homo sapiens, UniProt Q05586+Q13224) (assay: Cell-based calcium flux (FLIPR) assay on cloned human NR1/NR2B ion channels expressed in mammalian cells). Conditions: standard assay; human GluN1/GluN2B, calcium flux (FLIPR), glutamate ~EC80.
Experimental: Effects of Test Articles on Cloned Human NR1/NR2B Ion Channels Expressed in Mammalian Cells
NMDA receptors are ion channels that are highly permeable to Ca^2+ ions, rendering it possible to monitor NMDA receptor function using cell-based calcium flux assay. In this assay, co-agonists glutamate and glycine are added to cells heterologously expressing human GluN1/GluN2B NMDA receptors to initiate cellular Ca^2+ influx. The time course of the changes in intracellular calcium is measured using a fluorescent dye and a FLIPR (Fluorometric Imaging Plate Reader) device.
Twenty four hours before measurements, the expression of the NMDA receptors in the stable cell line is induced with Tet-On inducible system in the presence of a non-selective NMDA receptor blocker. On the day of the experiment, cell culture media is carefully washed and the cells are loaded with Calcium 5 Dye Kit (Molecular Devices) in dye loading buffer containing 149 mM NaCl, 4 mM KCl, 2 mM CaCl2, and 1.5 mM MgCl2, 10 mM HEPES and 5 mM D-glucose; pH 7.4. After 1 h incubation at the room temperature, the dye is washed away with the assay buffer (149 mM NaCl (standard assay) or 150 mM (HTS assay), 4 mM KCl (standard assay) or 3 mM (HTS assay), 2 mM CaCl2, 0.01 mM EDTA, 10 mM HEPES and 5 mM D-glucose; pH 7.4) In the FLIPR TETRA reader, various concentrations of the test compounds are added to the cells for 5 min while fluorescence is monitored to detect potential agonist activity. Next, co-agonists, glutamate and glycine are added for another 5 minutes. The concentration of glutamate corresponding to ˜EC80 (standard assay) or EC40 (HTS assay) is used to maximize the assay's signal window or the ability to detect NMDA receptor antagonists and negative allosteric modulators, respectively. A saturating concentration (10 μM) of glycine is also present in the assay. […] The fluorescent signal in the presence of test compounds is quantified and normalized to the signal defined by the appropriate control wells.

Chain of human GluN1/GluN2B NMDA receptors (Q13224 27-1484, other chains not shown): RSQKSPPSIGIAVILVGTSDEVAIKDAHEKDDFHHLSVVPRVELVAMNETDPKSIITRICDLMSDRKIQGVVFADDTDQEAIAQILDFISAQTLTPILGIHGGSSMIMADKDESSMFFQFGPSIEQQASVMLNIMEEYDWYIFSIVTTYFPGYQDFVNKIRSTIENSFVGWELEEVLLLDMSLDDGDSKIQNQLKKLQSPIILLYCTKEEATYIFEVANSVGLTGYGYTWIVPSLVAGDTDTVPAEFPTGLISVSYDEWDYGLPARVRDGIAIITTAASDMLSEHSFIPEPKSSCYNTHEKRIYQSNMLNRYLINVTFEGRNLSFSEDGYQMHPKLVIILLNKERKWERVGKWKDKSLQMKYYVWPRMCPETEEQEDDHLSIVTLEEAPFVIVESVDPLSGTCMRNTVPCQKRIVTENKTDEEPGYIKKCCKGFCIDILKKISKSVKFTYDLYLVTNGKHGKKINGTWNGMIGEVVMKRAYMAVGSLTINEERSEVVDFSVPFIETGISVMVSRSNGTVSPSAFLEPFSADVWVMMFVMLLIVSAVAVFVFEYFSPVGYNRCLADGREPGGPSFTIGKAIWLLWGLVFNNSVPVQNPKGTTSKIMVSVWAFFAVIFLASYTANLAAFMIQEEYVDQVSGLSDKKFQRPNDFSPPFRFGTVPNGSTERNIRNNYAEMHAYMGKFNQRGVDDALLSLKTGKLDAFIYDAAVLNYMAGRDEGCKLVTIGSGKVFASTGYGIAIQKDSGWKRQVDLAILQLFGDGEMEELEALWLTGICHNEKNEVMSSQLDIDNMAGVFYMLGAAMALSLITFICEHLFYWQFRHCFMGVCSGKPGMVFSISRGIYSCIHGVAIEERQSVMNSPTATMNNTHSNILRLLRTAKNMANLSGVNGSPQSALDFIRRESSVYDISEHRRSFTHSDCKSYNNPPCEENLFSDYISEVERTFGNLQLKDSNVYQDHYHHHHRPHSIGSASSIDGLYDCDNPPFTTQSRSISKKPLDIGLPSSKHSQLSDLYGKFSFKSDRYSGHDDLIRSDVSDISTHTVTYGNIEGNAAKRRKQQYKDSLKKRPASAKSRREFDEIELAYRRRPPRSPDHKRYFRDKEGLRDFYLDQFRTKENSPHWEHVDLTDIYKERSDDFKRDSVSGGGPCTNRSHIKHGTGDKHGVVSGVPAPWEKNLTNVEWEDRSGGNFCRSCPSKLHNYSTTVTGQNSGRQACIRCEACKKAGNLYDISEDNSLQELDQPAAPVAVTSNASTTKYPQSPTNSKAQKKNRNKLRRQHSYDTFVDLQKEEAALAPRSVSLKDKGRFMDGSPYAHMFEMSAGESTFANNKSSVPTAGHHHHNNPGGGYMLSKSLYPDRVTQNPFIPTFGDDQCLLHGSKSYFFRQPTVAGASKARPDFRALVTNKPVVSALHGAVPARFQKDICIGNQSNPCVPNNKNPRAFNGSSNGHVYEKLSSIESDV

Point of comparison: `CC(F)(F)c1cc(-n2cc(COc3ncccn3)nn2)ccc1F` [Example 78, 2-[[1-[3-(1,1-Difluoroethyl)-4-fluoro-phenyl]triazol-4-yl]methoxy]pyrimidine], IC50 0.06 µM. Against it:
- Cc1cnc(OCc2cn(-c3ccc(F)c(OC(F)F)c3)nn2)nc1 [Example 63, 2-[[1-[3-(Difluoromethoxy)-4-fluoro-phenyl]triazol-4-yl]methoxy]-5-methyl-pyrimidine] — 20-fold lower, 0.003 µM
- Cc1ccnc(OCc2cn(-c3ccc(F)c(OC(F)F)c3)nn2)n1 [Example 64, 2-[[1-[3-(Difluoromethoxy)-4-fluoro-phenyl]triazol-4-yl]methoxy]-4-methyl-pyrimidine] — 8.6-fold lower, 0.007 µM
- Fc1ccc(-n2cc(COc3ccc(C(F)(F)F)cn3)nn2)cc1C(F)F [Example 65, 2-[[1-[3-(Difluoromethyl)-4-fluoro-phenyl]triazol-4-yl]methoxy]-5-(trifluoromethyl)pyridine] — within 1.5-fold, 0.056 µM
- Fc1cnc(OCc2cn(-c3ccc(Cl)c(C(F)F)c3)nn2)nc1 [Example 66, 2-[[1-[4-Chloro-3-(difluoromethyl)phenyl]triazol-4-yl]methoxy]-5-fluoro-pyrimidine] — within 1.5-fold, 0.052 µM
- CCc1cnc(OCc2cn(-c3ccc(F)c(C(C)(F)F)c3)nn2)nc1 [Example 67, 2-[[1-[3-(1,1-Difluoroethyl)-4-fluoro-phenyl]triazol-4-yl]methoxy]-5-ethyl-pyrimidine] — 4-fold lower, 0.015 µM
- COc1cnc(OCc2cn(-c3ccc(F)c(C(C)(F)F)c3)nn2)nc1 [Example 68, 2-[[1-[3-(1,1-Difluoroethyl)-4-fluoro-phenyl]triazol-4-yl]methoxy]-5-methoxy-pyrimidine] — 8.6-fold lower, 0.007 µM
- CC(F)(F)c1cc(-n2cc(COc3ncc(Cl)cn3)nn2)ccc1F [Example 69, 5-Chloro-2-[[1-[3-(1,1-difluoroethyl)-4-fluoro-phenyl]triazol-4-yl]methoxy]pyrimidine] — 6.7-fold lower, 0.009 µM
- CC(C)c1cnc(OCc2cn(-c3ccc(F)c(C(C)(F)F)c3)nn2)nc1 [Example 70, 2-[[1-[3-(1,1-Difluoroethyl)-4-fluoro-phenyl]triazol-4-yl]methoxy]-5-isopropyl-pyrimidine] — within 1.5-fold, 0.044 µM
- CC(F)(F)c1cc(-n2cc(COc3ncc(C(F)(F)F)cn3)nn2)ccc1F [Example 71, 2-[[1-[3-(1,1-Difluoroethyl)-4-fluoro-phenyl]triazol-4-yl]methoxy]-5-(trifluoromethyl)pyrimidine] — 1.5-fold lower, 0.04 µM
- CCc1cnc(OCc2cn(-c3ccc(F)c(C(F)(F)F)c3)nn2)nc1 [Example 72, 5-Ethyl-2-[[1-[4-fluoro-3-(trifluoromethyl)phenyl]triazol-4-yl]methoxy]pyrimidine] — 6-fold lower, 0.01 µM
- COc1cnc(OCc2cn(-c3ccc(F)c(C(F)(F)F)c3)nn2)nc1 [Example 73, 2-[[1-[4-Fluoro-3-(trifluoromethyl)phenyl]triazol-4-yl]methoxy]-5-methoxy-pyrimidine] — 7.5-fold lower, 0.008 µM
- Fc1ccc(-n2cc(COc3ncc(Cl)cn3)nn2)cc1C(F)(F)F [Example 74, 5-Chloro-2-[[1-[4-fluoro-3-(trifluoromethyl)phenyl]triazol-4-yl]methoxy]pyrimidine] — 3.8-fold lower, 0.016 µM
- CC(C)c1cnc(OCc2cn(-c3ccc(F)c(C(F)(F)F)c3)nn2)nc1 [Example 75, 2-[[1-[4-Fluoro-3-(trifluoromethyl)phenyl]triazol-4-yl]methoxy]-5-isopropyl-pyrimidine] — 2.3-fold lower, 0.026 µM
- Fc1ccc(-n2cc(COc3ncc(C(F)(F)F)cn3)nn2)cc1C(F)(F)F [Example 76, 2-[[1-[4-Fluoro-3-(trifluoromethyl)phenyl]triazol-4-yl]methoxy]-5-(trifluoromethyl)pyrimidine] — 1.7-fold lower, 0.035 µM
- Cc1cnc(OCc2cn(-c3ccc(F)c(C(C)(F)F)c3)nn2)nc1 [Example 77, 2-[[1-[3-(1,1-Difluoroethyl)-4-fluoro-phenyl]triazol-4-yl]methoxy]-5-methyl-pyrimidine] — 15-fold lower, 0.004 µM
- Cc1ccnc(OCc2cn(-c3ccc(F)c(C(C)(F)F)c3)nn2)n1 [Example 79, 2-[[1-[3-(1,1-Difluoroethyl)-4-fluoro-phenyl]triazol-4-yl]methoxy]-4-methyl-pyrimidine] — 8.6-fold lower, 0.007 µM
- CC(F)(F)c1cc(-n2cc(COc3ncc(F)cn3)nn2)ccc1F [Example 80, 2-[[1-[3-(1,1-Difluoroethyl)-4-fluoro-phenyl]triazol-4-yl]methoxy]-5-fluoro-pyrimidine] — 1.9-fold lower, 0.032 µM
- Cc1cnc(OCc2cn(-c3ccc(F)c(C(F)(F)F)c3)nn2)nc1 [Example 81, 2-[[1-[4-Fluoro-3-(trifluoromethyl)phenyl]triazol-4-yl]methoxy]-5-methyl-pyrimidine] — 20-fold lower, 0.003 µM
- Fc1ccc(-n2cc(COc3ncccn3)nn2)cc1C(F)(F)F [Example 82, 2-[[1-[4-Fluoro-3-(trifluoromethyl)phenyl]triazol-4-yl]methoxy]pyrimidine] — 2.1-fold higher, 0.126 µM
- Cc1ccnc(OCc2cn(-c3ccc(F)c(C(F)(F)F)c3)nn2)n1 [Example 83, 2-[[1-[4-Fluoro-3-(trifluoromethyl)phenyl]triazol-4-yl]methoxy]-4-methyl-pyrimidine] — 3-fold lower, 0.02 µM
- Fc1cnc(OCc2cn(-c3ccc(F)c(C(F)(F)F)c3)nn2)nc1 [Example 84, 5-Fuoro-2-[[1-[4-fluoro-3-(trifluoromethyl)phenyl]triazol-4-yl]methoxy]pyrimidine] — within 1.5-fold, 0.072 µM
- Cc1cnc(OCc2cn(-c3ccc(F)c(Br)c3)nn2)nc1C [Example 85, 2-[[1-(3-Bromo-4-fluoro-phenyl)triazol-4-yl]methoxy]-4,5-dimethyl-pyrimidine] — 20-fold lower, 0.003 µM
- Cc1cnc(OCc2cn(-c3ccc(Cl)c(C(F)F)c3)nn2)nc1C [Example 86, 2-[[1-[4-Chloro-3-(difluoromethyl)phenyl]triazol-4-yl]methoxy]-4,5-dimethyl-pyrimidine] — 15-fold lower, 0.004 µM
- COc1cnc(OCc2cn(-c3ccc(Cl)c(OC)c3)nn2)nc1 [Example 87] — 5-fold lower, 0.012 µM
- COc1cc(-n2cc(COc3ncc(C)cn3)nn2)ccc1Cl [Example 88, 2-[[1-(4-Chloro-3-methoxy-phenyl)triazol-4-yl]methoxy]-5-methyl-pyrimidine] — 3.2-fold lower, 0.019 µM
- Cc1cnc(OCc2cn(-c3cccc(C(F)F)c3)nn2)nc1 [Example 89, 2-[[1-[3-(Difluoromethyl)phenyl]triazol-4-yl]methoxy]-5-methyl-pyrimidine] — 5.5-fold lower, 0.011 µM
- COc1cnc(OCc2cn(-c3cccc(C(F)F)c3)nn2)nc1 [Example 90, 2-[[1-[3-(Difluoromethyl)phenyl]triazol-4-yl]methoxy]-5-methoxy-pyrimidine] — 5-fold lower, 0.012 µM
- CCc1cnc(OCc2cn(-c3cccc(C(F)F)c3)nn2)nc1 [Example 91, 2-[[1-[3-(Difluoromethyl)phenyl]triazol-4-yl]methoxy]-5-ethyl-pyrimidine] — 15-fold lower, 0.004 µM
- FC(F)c1cccc(-n2cc(COc3ncc(Cl)cn3)nn2)c1 [Example 92, 5-Chloro-2-[[1-[3-(difluoromethyl)phenyl]triazol-4-yl]methoxy]pyrimidine] — 3.2-fold lower, 0.019 µM
- FC(F)c1cccc(-n2cc(COc3ncccn3)nn2)c1 [Example 93, 2-[[1-[3-(Difluoromethyl)phenyl]triazol-4-yl]methoxy]pyrimidine] — 8.2-fold higher, 0.493 µM
- Cc1cnc(OCc2cn(-c3ccc(Br)c(C)n3)nn2)nc1 [Example 94, 2-[[1-(5-Bromo-6-methyl-2-pyridyl)triazol-4-yl]methoxy]-5-methyl-pyrimidine] — 49-fold higher, 2.91 µM
